The values that follow come from US20120101230A1, “HIGH-DENSITY POLYMER SURFACE COATING TO IMMOBILIZE CHEMICAL OR BIOLOGICAL MOLECULES” (priority 2009, published 2012).

Where a name gives a salt, the structure may show the parent alone.

Test [1] deals with T1, recombinant human trypsin (Homo sapiens, UniProt P07477).
T1 construct: purchased Polymum Lot#H149L091.1
In words: Small molecule binding to trypsin-immobilized surface, PWV shift. How it is done: (§1) Trypsin was tested to determine what other proteins could be successfully immobilized on high-density polymer surfaces. Like above, high-density polymer surfaces were activated by adding 0.34 M EDC/10 mM NHS in water for 10 min, followed by removing the solution. 50 μg/ml trypsin in non-amine containing buffer was added to the wells, and was incubated for up to around 700 min, followed by a wash first with acetic buffer, then PBS. The trypsin was recombinant human protein from Polymum Lot#H149L091.1. The results of trypsin binding over time, as a function of delta PWV, are shown in FIG. 14, as well as an NHS control. 90% of the protein was immobilized within less than 2 hr. Benzamidine was then added for binding to the immobilized trypsin by adding benzamidine at a final concentration of 67 μM in PBS, pH 7.4. Benzamidine has a molecular weight of 120.15, and an expected delta PWV or PWV shift of 36 pm.
(§2) Antipain was then added for binding to the low COOH density surfaces. 49.2, 12.3, 3.1, and 1 μM antipain dihydrochloride in PBS was prepared from a microbial source and was added to the 3.8 nm delta PWV shift from trypsin immobilization. 49.2 μM antipain was also added to no trypsin control wells (N=4). […] The theoretical shift of antipain of 1:1 binding on 3.8 nm delta PWV shift trypsin surface is […]. The control, 49.2 μM antipain in a well with no trypsin immobilization, had […] bulk or NSB PWV shift.
(§3) Leupeptin was also added for binding to the low COOH density surfaces. 88, 22, 5.5, and 0 μM leupeptin dihydrochloride solutions in PBS were prepared and were added to the 3.8 nm delta PWV shift trypsin immobilization surfaces. 88 μM leupeptin was also added to no trypsin control wells (N=2). […] The theoretical shift of leupeptin of 1:1 binding on 3.8 nm delta PWV trypsin is […]. The control 88 μM leupeptin with no trypsin immobilization had 12 nm bulk or NSB shift.

A further test deals with avidin (Gallus gallus, UniProt P02701). The test can be described thus: Biotin binding to immobilized avidin on PAA surfaces. As for the experimental part:
(§4) In order to immobilize protein to the novel surfaces, the high-density polymer surfaces of Examples 2 and 3 were activated by adding 0.34 M EDC/10 mM NHS in water for 10 min, followed by removing the solution. In an initial test of protein immobilization capability and protein activity following immobilization, biotin binding to immobilized streptavidin was used—20 μL of either 200 μg/ml avidin or streptavidin in a non-amine containing buffer (10 mM acetate buffer, pH 5.0) were added to the surface and incubated for 3 hr, followed by a wash first with the non-amine containing buffer, then PBS. Biotin was then added for binding to the immobilized avidin or streptavidin by using a 20 μL of a biotin solution in PBS to result in a final Biotin concentration of approximately 58 μM (N=4).
(§5) 20 μL of either 0, 50, or 200 μg/ml avidin or streptavidin in a non-amine containing buffer were added to the wells after they were pre-activated for 10 min with EDC/NHS, and incubated for 3 hr. This was then followed by a wash first with the non-amine containing buffer. Biotin was then added for binding to the immobilized avidin or streptavidin by adding 20 μL of a biotin solution in PBS to result in a final Biotin concentration of approximately 58 μM (N=4).

The next test concerns the target streptavidin (Streptomyces avidinii, UniProt P22629). In words: Biotin binding to immobilized streptavidin on PAA surfaces. As for the experimental part: as §4, §5
A short description of test [2]: Bulk or NSB PWV shift in no trypsin control wells. As to conditions: 88 μM leupeptin, no trypsin immobilization. How it is done:
as §2, §3

Test [3] in a line: Streptavidin/avidin immobilization on high-density polymer (PAA) surfaces, SWS biosensor PWV shift. Format: binding. How it is done: as §4
The initial test was followed up by reacting different concentrations of avidin or streptavidin with the different high-density polymer surfaces.
as §5

Test [4] can be described thus: Trypsin immobilization on high-density polymer surfaces, delta PWV. Format: binding. As to conditions: for course of immobilization: 10 mM acetate buffer pH 5.0, 3 hr. How it is done:
as §1
Trypsin binding was also measured on both high and low COOH density surfaces. 100 μg of human recombinant trypsin in 10 mM acetate buffer pH 5.0 was immobilized on either a high or low COOH density surface for 3 hr.

The mark [5] stands for this setting: PAA coated under theta condition, biotin approximately 58 μM.
[6] abbreviates: low COOH density surfaces (versus high).
The mark [7] stands for this setting: PAA 100K, high COOH density surface, coated with 1/6 dilution NHS/EDC (theta condition) compared to the other dilutions.
Setting [8] is: PAA 100K, low COOH density surface, coated with 1/6 dilution NHS/EDC (theta condition) compared to the other dilutions.
Where [9] appears, read: PAA 250K, high COOH density surface, coated with 1/6 and 1/8 dilution NHS/EDC (theta condition) compared to the other dilutions.
Setting [10] is: PAA 250K, low COOH density surface, coated with 1/6 and 1/8 dilution NHS/EDC (theta condition) compared to the other dilutions.

streptavidin, sequence (P22629 25-183, species assumed): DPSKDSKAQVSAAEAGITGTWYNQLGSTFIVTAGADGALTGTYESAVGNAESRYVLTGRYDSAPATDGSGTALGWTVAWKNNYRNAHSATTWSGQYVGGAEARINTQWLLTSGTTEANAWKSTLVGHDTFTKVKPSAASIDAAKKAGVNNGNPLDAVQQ
avidin, sequence (P02701 25-152, species assumed): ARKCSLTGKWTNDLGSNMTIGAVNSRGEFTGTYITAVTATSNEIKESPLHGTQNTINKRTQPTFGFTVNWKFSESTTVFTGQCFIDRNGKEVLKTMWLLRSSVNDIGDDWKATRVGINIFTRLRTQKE

As for `N=C(N)c1ccccc1` [Benzamidine], the “expected delta PWV or PWV shift” value in test [1] (benzamidine 67 μM in PBS, pH 7.4) is 36 pm.

As for `O=C(O)CCCC[C@@H]1SC[C@@H]2NC(=O)N[C@@H]21` [Biotin], the biotin binding entry on avidin (setting [5]) and on streptavidin (setting [5]) was “higher biotin binding” each time. On avidin (setting [6]), the “activity of avidin for biotin interaction” value is given as “more activity”. The “activity of streptavidin for biotin interaction” value at streptavidin (setting [6]) is “more activity”.

Consider `CC(=O)N[C@@H](CC(C)C)C(=O)N[C@@H](CC(C)C)C(=O)N[C@H](C=O)CCCNC(=N)N` [leupeptin, leupeptin dihydrochloride], for which the “bulk or NSB shift” value in test [2] is reported as 12 nm. The “binding to immobilized trypsin (titration)” value in test [1] (3.8 nm delta PWV trypsin on low COOH density surface) is reported as “Titration of leupeptin was observed”. Also, in test [1] (7.2 nm delta PWV trypsin on high COOH density surface), the “binding to immobilized trypsin” value was “No positive result was observed”. Besides, the “theoretical shift of 1:1 binding” value in test [1] (on 3.8 nm delta PWV shift trypsin surface) stood at 66 nm.

For avidin, the “protein immobilization (PWV)” value in test [3] (setting [7]), in test [3] (setting [8]), in test [3] (setting [9]) and in test [3] (setting [10]) was “More avidin was immobilized” in each case.

As for streptavidin, the “protein immobilization (PWV)” value in test [3] (setting [7]), in test [3] (setting [8]), in test [3] (setting [9]) and in test [3] (setting [10]) was “More streptavidin was immobilized” throughout.

In the case of trypsin, in test [4] (50 μg/ml trypsin in non-amine containing buffer), the “time within which 90% of the protein was immobilized” value is “less than 2 hr”. Further, in test [4] (high COOH density surface), the “delta PWV of trypsin immobilization” value was found to be 7.2 nm and the course of immobilization result was “immobilized rapidly”. Further, in test [4] (low COOH density surface), the “delta PWV of trypsin immobilization” value was determined as 3.8 nm and the course of immobilization result is “slow but rising constantly”.
